Experiments:
Aldose reductase = target: T1, Aldose reductase (Oryctolagus cuniculus, UniProt P15122); test: Aldose reductase inhibition, in vitro (loss of absorbance at 340 millimicrons, glyceraldehyde substrate, NADPH); assay type: biochemical, New Zealand rabbits (lens); conditions: pH 6.0, 37° C; for inhibition at 100 µM: 1 × 10^-4 molar concentration of xanthone compound; for inhibition at 10 µM: 1 × 10^-5 molar concentration of xanthone compound; for inhibition at 1 µM: 1 × 10^-6 molar concentration of xanthone compound
T1 construct: Aldose reductase is isolated by homogenizing the lens in 3 volumes of water; from tissue; host or cells: lens of mature New Zealand rabbits
Procedure: In brief, a solution of the enzyme is added to an appropriately buffered solution containing glyceraldehyde. The loss of ultra violet absorbance at 340 millimicrons is indicative of the rate of reaction of the aldehyde with the enzyme as previously reported by Hayman and Kinoshita, (J. Biol. Chem: 240, 877, (1965)).
Fifty lenses are obtained from mature, New Zealand, rabbits and are immediately frozen on dry ice. Aldose reductase is isolated by homogenizing the lens in 3 volumes of water for 30 seconds in a Waring blender followed by centrifugation at 10,000 xg for 15 minutes to remove insoluble material. Saturated ammonium sulfate is added to the supernatant fluid to 40% saturation. The suspension is centrifuged after 15 minutes, and the supernatant liquid recovered. Additional protein is removed by increasing the ammonium sulfate concentration to 50%, and centrifuging the mixture. Aldose reductase is precipitated from the 50% saturated solution by the addition of powdered ammonium sulfate to 75% saturation and is recovered by centrifugation. The precipitated enzyme is assayed by following the ultraviolet absorbance at 340 millimicrons after dissolving the enzyme in 0.05 M sodium chloride. The enzyme (0.50 ml) is added to a quartz cuvette containing phosphate buffer (0.067 M, pH 6.0), NADPH (2×10^-5 M), and water to a final volume of 3 ml and the cuvette inserted in a conventional ultra-violet spectrometer. The reaction is started by the addition of substrate (glyceraldehyde) to the contents of the cuvette and is followed by the determination of loss of absorbance at 340 millimicrons for 2 minutes at 37° C. The reaction rate observed is usually linear for at least 5 minutes.
All results are shown in Tables I, II, and III as % inhibition, i.e. based on a non-inhibited control sample, no inhibition, 0%.

lens aldose reductase = conditions: in vitro; cited from earlier work

Compound	inhibition at 100 µM (Aldose reductase) [%]	inhibition at 10 µM (Aldose reductase) [%]	inhibition at 1 µM (Aldose reductase) [%]	% Inhibition (Aldose reductase; molar concentration printed (Table II)) [%]	inhibition of lens aldose reductase (potency in words) (lens aldose reductase)
CC(C)CCOc1cc([S+](C)[O-])cc2c(=O)c3cc(C(=O)O)ccc3oc12 (stereo not drawn)	90	65	25		
CSc1cc(C(C)C)c2oc3ccc(C(=O)O)cc3c(=O)c2c1	97	67	17		
CSc1cc(OC(C)C)c2oc3ccc(C(=O)O)cc3c(=O)c2c1	85	67	17		
CC(C)Oc1ccc2oc3ccc(C(=O)O)cc3c(=O)c2c1	89	73	3		
CCCCCCCCOc1cc([S+](C)[O-])cc2c(=O)c3cc(C(=O)O)ccc3oc12 (stereo not drawn) [CH3 1 n-C8 H11 O]	96	83	42		
C[S+]([O-])c1cc(S(C)(=O)=O)cc2c(=O)c3cc(C(=O)O)ccc3oc12 (stereo not drawn) [CH3 2 CH3 SO]		50			
CCC(=O)c1ccc2oc3ccc(C(=O)O)cc3c(=O)c2c1 [CH3 CH2 H]		54	50	63	
O=C(O)c1ccc2oc3ccc(S(=O)(=O)CCO)cc3c(=O)c2c1 [HO(CH2)2 2 H, 7-(2-hydroxyethylsulfonyl)xanthone-2-carboxylic acid]		83			
CC1OC(Oc2c(-c3cc(O)c(O)c(O)c3)oc3cc(O)cc(O)c3c2=O)C(O)C(O)C1O (stereo not drawn) [myrecetrin]					among the most potent
O=c1c(O)c(-c2ccc(O)c(O)c2)oc2cc(O)cc(O)c12 [quercetin]					among the most potent
CC1OC(Oc2c(-c3ccc(O)c(O)c3)oc3cc(O)cc(O)c3c2=O)C(O)C(O)C1O (stereo not drawn) [quercetrin]					among the most potent

More lines, main results first:

inhibition at 100 µM (Aldose reductase) [%]	inhibition at 10 µM (Aldose reductase) [%]	inhibition at 1 µM (Aldose reductase) [%]	% Inhibition (Aldose reductase; molar concentration printed (Table II)) [%]	Compound	inhibition of lens aldose reductase (potency in words) (lens aldose reductase)
89	69	17		CC(C)N(C)S(=O)(=O)c1ccc2oc3ccc(C(=O)O)cc3c(=O)c2c1	
95	75	25		CCCCN(C)S(=O)(=O)c1ccc2oc3ccc(C(=O)O)cc3c(=O)c2c1	
85	60	30		CSc1cc(OC(C)C)cc2c(=O)c3cc(C(=O)O)ccc3oc12	
	81	54		O=C(O)c1ccc2oc3ccc(OCC(O)CO)cc3c(=O)c2c1 (stereo not drawn)	
	67			O=C(O)c1ccc2oc3ccc(S(=O)(=O)N(CCO)CCO)cc3c(=O)c2c1 [(HOCH2 CH2)2 N 2 H]	
95	70	35		CCCCCOc1cc([S+](C)[O-])cc2c(=O)c3cc(C(=O)O)ccc3oc12 (stereo not drawn) [CH3 1 n-C5 H11 O]	
	39	25		COc1cc(OC)c2oc3ccc(C(=O)O)cc3c(=O)c2c1 [CH3 O CH3 O]	
81	39	17		COc1ccc2oc3ccc(C(=O)O)cc3c(=O)c2c1 [CH3 O H]	
70	43			O=C(O)c1ccc2oc3ccc(S(=O)(=O)O)cc3c(=O)c2c1 [H 3 H]	
78	50	28		COc1cccc2c(=O)c3cc(C(=O)O)ccc3oc12 [H CH3 O]	

Reference: patent US4250097A, “Compositions for and a method of preventing diabetic complications” (Syntex (U.S.A.) Inc., priority 1978, dated 1981)
